Here are results for one molecule from publication PMC7352571, “New Anti-Cancer Strategy to Suppress Colorectal Cancer Growth Through Inhibition of ATG4B and Lysosome Function” (Cancers, 2020).

In one data set the test system is MDA-MB-231 cells. Kind of data set: CCK-8 cell viability assay, MDA-MB-231. Format: cell-based. The settings on record: Homo sapiens, CCK-8 assay, 48 h. The protocol: (§1) Cells were seeded and incubated overnight in 96-well plates at a density of 5 × 10^3 cells/well. […] A total of 10 µL CCK-8 were added to each well for additional 1 h and cell viability was measured by CCK-8 assay. Absorbance was measured at 450 nm. The IC50 values were calculated by GraphPad Prism 7 (GraphPad Software Inc., San Diego, CA, USA).
For orientation: Tetrazolium dyes change colour on reduction, which living cells bring about.

Data set [1] concerns HCT116 cells. Kind of data set: real-time cellular analysis (RTCA). Format: cell-based, Human. The note with it: 2 µM, wild type HCT116. Here is the method:
An E-Plate 16 (ACEA Biosciences, Hangzhou, China) was prepared with 50 µL of DMEM medium added to each well to do a background measurement in the xCELLigence instrument (ACEA Biosciences, China). 100 µL of passaged cell suspensions containing 2.5 × 10^3 cells were added to each well and then cells were settled on the base of the well for 30 min at room temperature. The plate was inserted into the RTCA system (housed within the incubator) and cell index (CI) values were assessed every 5 min over the following 72 h. After 24 h of cell seeding, the assay was paused and 2 µM 163N was added to each well. Then, the plate was placed in the station again and the analysis was restarted. After completing a total of 72 h of analysis, the data were analyzed with GraphPad 7.0 software.

Data set [2] deals with proteolytic activity of lysosomes in HeLa cells. Kind of data set: DQ-BSA Red assay. The settings on record: 6 h, 163N 5 or 10 µM, Baf 0.5 µM, E64D 25 µM plus pepstatin A 50 µM. The class given is cell-based. Here is the method:
Figure 5 163N causes lysosome dysfunction. […] . (C) HeLa cells were treated with or without 163N (10 µM) for 6 h, followed by immunostaining using cathepsin B and LAMP1 antibody. The colocalization of cathepsin B and LAMP1 was measured.
DQ-BSA Red assay: cells were incubated with 10 µg/mL DQ-BSA Red in EBSS medium at 37° for 1.5 h, and then new medium with or without the indicated compounds were added for another 4 or 6 h, and then fluorescence microscopy was used for detecting the intensity of red fluorescent.
Supplementary Materials: New Anti-Cancer Strategy
to Suppress Colorectal Cancer Growth Through
Inhibition of ATG4B and Lysosome Function
Figure S1. Compounds with a 6-methylpyrimidine-2,4-diamine structure could cause lysosome
inhibition. (A) The structure of the representative lysosome inhibitors. (B) GFP-LC3B HeLa cells were
treated with Baf (0.5 µM) or 5 µM of different lysosome inhibitors for 2 h, then LysoTracker Red (LTR,
25 ng/mL) was used and the relative LTR fluorescent intensity was measured. (C) HeLa cells were
firstly treated with 10 µg/mL DQ-BSA for 1.5 h, and then treated with Rap (1 µM), Baf (0.5 µM), E64D
(25 µM) plus pepstatin A (50 µM), or 5 µM of different lysosome inhibitors for 4 h.
Cancers 2020, 12, x; www.mdpi.com/journal/ cancers […]

Another data set concerns SGC7901 cells. Put plainly: CCK-8 cell viability assay, SGC7901. The class given is cell-based. The settings on record: Homo sapiens, SGC-7901; CCK-8 assay, 48 h. The protocol:
as §1

Data set [3] concerns HCT116 cells. Put plainly: wound healing assay. Format: cell-based, Human. The note with it: 10 µM, 48 h. Here is the method: Cells were seeded in 12-well plates. After the cells grew to confluence, wounds were made by sterile pipette tips. The cells were photographed at the beginning of wound formation. […] The distance of cell migration was calculated from three independent experiments.

Data set [4] relates to HCT116 cells. Kind of data set: CCK-8 cell viability assay, HCT116. Format: cell-based, Human. The protocol: as §1
The test system of another data set is U87 cells. Kind of data set: CCK-8 cell viability assay, U87. The note with it: Homo sapiens, U-87 MG; CCK-8 assay, 48 h. Format: cell-based. The protocol: as §1
A further data set deals with A549 cells. Kind of data set: CCK-8 cell viability assay, A549. The class given is cell-based. The settings on record: Homo sapiens, CCK-8 assay, 48 h. Here is the method:
as §1

Data set [5] deals with lysosome acidity in HeLa cells. Put plainly: LysoTracker Red (LTR) assay, HeLa. Format: cell-based. The settings on record: 6 h, 163N 5 or 10 µM, Rap 1 µM, E64D 25 µM plus pepstatin A 50 µM. Here is the method:
Figure 5 163N causes lysosome dysfunction. […] (C) HeLa cells were treated with or without 163N (10 µM) for 6 h, followed by immunostaining using cathepsin B and LAMP1 antibody. The colocalization of cathepsin B and LAMP1 was measured.
LTR assay: cells were incubated with LTR (25 nM) in HBSS medium at 37° for 30 min, and then fluorescence microscopy was used for detecting fluorescence intensity.

A further data set has as its system KYSE150 cells. Kind of data set: CCK-8 cell viability assay, KYSE150. The class given is cell-based. The settings on record: Homo sapiens, KYSE-150; CCK-8 assay, 48 h. The protocol:
as §1

The next data set concerns the target T1, caspase-3 (Homo sapiens, UniProt P42574).
T1 construct: endogenous in cells; host or cells: HeLa (staurosporine-treated, whole cell lysate)
Kind of data set: caspase-3 activity assay (Ac-DEVE-AFC cleavage in lysate of staurosporine-treated HeLa cells). Format: biochemical. The note with it: even at a concentration of 50 µM. The protocol:
. (B) Predicted binding model of compound XOS00163, XOS00201, and XOS00207 bind to ATG4B (PDB ID: 2CY7) pocket. […] . […] . HeLa cells were treated with 1 µM of staurosporine (SP) for 12 h to induce cell apoptosis. Then, 2 µg of the whole cell lysate were mixed with indicated compounds at 37° for 30 min, Ac-DEVE-AFC (25 µM) were then added to a volume of 50 µL, and the emission of 505 nm for AFC was recorded. […] |

The next data set concerns MRC-5 cells. Kind of data set: CCK-8 cell viability assay, normal cells MRC-5. Format: cell-based. The settings on record: at a higher concentration (40 µM), 48 h. Here is the method:
as §1
Figure S2. 163N could inhibit autophagy flux. (A) HeLa cells treated with different concentrations of
II/TUBA was calculated using ImageJ software.
was examined. The number of GFP-LC3B dots was quantified. Data are presented as mean ± SEM
was performed to assess cell viability. […]

A further data set relates to HeLa cells. Kind of data set: CCK-8 cell viability assay, HeLa. Format: cell-based. Here is the method:
as §1

The next data set concerns GFP-LC3 A549 cells. Kind of data set: GFP-LC3 dots in A549 cells stably expressing GFP-LC3. Format: cell-based. The note with it: 6 h at different concentrations or 10 µM over time course.

For orientation: IC50 means the concentration at which inhibition is half-maximal.

T1 sequence (P42574 29-175 limits assumed): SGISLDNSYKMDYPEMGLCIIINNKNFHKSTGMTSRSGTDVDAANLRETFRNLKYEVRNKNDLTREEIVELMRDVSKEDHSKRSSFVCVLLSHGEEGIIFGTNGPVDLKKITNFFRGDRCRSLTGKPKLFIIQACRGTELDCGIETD
T1 sequence (P42574 176-277 limits assumed): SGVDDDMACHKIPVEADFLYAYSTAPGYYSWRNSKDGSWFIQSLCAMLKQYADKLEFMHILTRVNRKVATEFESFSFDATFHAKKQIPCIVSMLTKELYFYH

On to `COc1ccc(Nc2cc(C)nc(Nc3ccc(-c4cc5ccccc5o4)cc3)n2)cc1` [Compound 163N], for which the IC50 in the data set with MDA-MB-231 cells amounted to 9.99 µM; with SGC7901 cells it was 21.2 µM; in the data set with HCT116 cells [4] (Homo sapiens, HCT-116, CCK-8 assay, 48 h) it was 5.76 µM; in the data set on U87 cells it was 10.6 µM; in the data set on A549 cells it was 7.68 µM; in the data set with KYSE150 cells, 13 µM. This molecule showed an IC50 in the data set on HeLa cells (Homo sapiens, HeLa, CCK-8 assay, 48 h) of 7.06 µM. Also, the “cytotoxic effect in RTCA” value in the data set with HCT116 cells [1] is recorded as “significant cytotoxic effects”. The “dequenching of DQ-BSA (proteolytic activity of lysosome)” value in [2] is recorded as “nearly no dequenching of DQ-BSA”. Further, the “migration of wild type HCT116 cells” value with HCT116 cells [3] was “significantly inhibited the migration”. The “cytotoxicity relative to XOS00163, XOS00201 and XOS00207, HCT116” value with HCT116 cells [4] (HCT116 cells) is “about five times higher cytotoxicity”. Besides, the “LTR red fluorescence / acidic vesicles” value in [5] is reported as “significant reduction in acidic vesicles”. Moreover, the “inhibition effect on caspase-3 activity” value against caspase-3 was “no inhibition effect”. Moreover, the “cell viability of normal cells MRC-5” value in the data set on MRC-5 cells was “reduce the cell viability”. Further, the “cytotoxicity relative to XOS00163, XOS00201 and XOS00207, HeLa” value in the data set on HeLa cells (HeLa cells) is “about five times higher cytotoxicity”. Moreover, the GFP-LC3 dots entry with GFP-LC3 A549 cells is “accumulation of GFP-LC3 dots in dose- and time-dependent manners”.
